Article PMC2637266, “Quantification of gamma-secretase modulation differentiates inhibitor compound selectivity between two substrates Notch and amyloid precursor protein” (Molecular Brain, 2008)
“Also recorded” adds a separate entry of the source. Like-named read-outs stand apart in the source and are kept apart here.

Columns and labels:
Notch target gene her6 = assay: Whole mount in situ hybridization of Notch target gene her6 in treated zebrafish embryos; type: in vivo
Text: To examine the effect of DAPT and cpd E on Notch signaling, embryos treated with different concentrations of DAPT or cpd E were stained by whole mount in situ hybridization using a her6 probe (Fig 5). The expression level of Notch downstream target gene her6 correlates to the levels of Notch signaling, i.e., a loss of her6 staining corresponds to an inhibition of γ-secretase mediated Notch signaling. We have focused on the specific effect of γ-secretase inhibitors on Notch signaling in brain region.
Figure 5 Expression levels of Notch target gene her6 are consistent with the curvature phenotype. Increasing concentrations of DAPT or cpd E were applied to de-chorionated zebrafish embryos from 24 hpf until 48 hpf, and in situ hybridization of compound-treated embryos was carried out at 48 hpf using the her6 probe. At least 10 to 20 embryos were examined for each experiment. Images were taken at the 64× magnification for stained embryos.
In situ hybridization of compound-treated embryos was carried out at 2 dpf according to standard protocols using the her6 probe. Single-stranded RNA probes against her6 were synthesized from a cDNA clone (provided by Dr. P Raymond, University of Michigan, Ann Arbor, MI) using T7 RNA polymerase after linearization by restriction digest. The probe was then labeled with digoxigenin-UTP (Roche, Basel, Switzerland). At least 10 to 20 embryos were examined for each experiment. Images were taken at 64× magnification for stained embryos.

[1] = target: T1, γ-secretase cleavage of Notch N100-Flag (Homo sapiens, UniProt P49768); assay: In vitro γ-secretase activity assay, NICD generated from N100-Flag, Western blot densitometry; type: biochemical; details: for NICD generation in vitro, dose response: N100-Flag, increasing concentrations
T1 construct: substrate made in E. coli
Description: To characterize the direct effect of two γ-secretase inhibitors cpd E and DAPT on APP/Notch cleavage, a conventional in vitro γ-secretase assay to quantify their inhibitory potency was used. The incubation of γ-secretase complex with purified substrates at 37°C for 4 hr was followed by Western Blot (WB) to determine the quantity of newly generated NICD. A newly generated band that corresponds to the predicted size of the NICD-Flag was detected (Fig. 1A and 1B).
Figure 1 Generation of NICD and Aβ from purified APP and Notch substrate C100 and N100 in an in vitro γ-secretase activity assay. The E. coli generated APP- and Notch-based, 100-residue γ-secretase substrates C100-Flag and N100-Flag were mixed with the membrane vesicles solubilized in CHAPSO after DMSO or compounds were added. The mixture was incubated at 37°C for 4 hours. A. A dose-dependent inhibition of NICD generation by DAPT. Generation of NICD was detected by Western blot (WB) with antibody 1744 specifically recognizing N-terminus of NICD. B. Generation of NICD was inhibited in the presence of 100 nM of cpd E. C. Levels of NICD determined by WB were quantified by densitometry (dotted line). Levels of Aβ generated from the γ-secretase cleavage of C100 in the presence of DAPT were determined by ELISA (solid line). […] D. NICD (dotted line) and Aβ (solid line) generation in the presence of cpd E were compared.
The E. coli generated APP- and Notch-based, 100-residue γ-secretase substrates C100-Flag and N100-Flag were purified as previously described. C100-Flag substrate contains an initiating methionine, the 99 C-terminal residues of APP that start at the […], and a Flag tag. N100-Flag substrate contains a similar initiating methionine, 99 amino acids that start at the TACE cleavage site, and a Flag tag. The membrane vesicles were solubilized in 1% CHAPSO-HEPES and diluted in a final concentration of 0.2% CHAPSO-HEPES. Phosphatidylethanolamine (PE) and phosphatidylcholine (PC) were added to the final concentration of 0.02% PE and 0.08% PC. After adding DMSO or test compounds to the solubilized γ-secretase complex, substrate C100-Flag or N100-Flag was added to the mixture, then followed by incubation at 37°C for 4 hours. Two compounds have been used in this study, compound E (cpd E), {(S,S)-2-[2-(3,5-Difluorophenyl)-acetylamino]-N-(1-methyl-2-oxo-5-phenyl-2,3-dihydro-1H-benzo [e] [1,4] diazepin-3-yl)-propionamide} [57] and DAPT {N-[N-(3,5-Difluorophenacetyl-L-alanyl)]-S-phenylglycine t-Butyl Ester} [79]. Cpd E was provided by Dr. Michael Wolfe.

[2] = target: T2, γ-secretase cleavage of NotchΔE (Homo sapiens, UniProt P49768); assay: NICD generation in NotchΔE transfected HEK293 cells, Western blot; type: cell-based; details: for NICD generation in cultured cells: high doses
T2 construct: endogenous in cells; host or cells: HEK293 stably expressing Swedish mutant human APP695, transiently transfected with NotchΔE
Description: Since many compounds could behave differently in vitro versus in culture cells, cpd E and DAPT were tested in cultured cells (Fig. 2). HEK293 cells stably expressing Swedish mutant APP were transiently transfected with NotchΔE, a truncated Notch construct that is readily cleaved by the γ-secretase to generate NICD for downstream signaling transduction. NotchΔE expressing cells were treated with increasing concentrations of DAPT or cpd E. Cell lysates were subjected to WB for measuring the generation of NICD (Fig. 2A), and conditioned media were collected for Aβ measurement by ELISA (Fig. 2B,C).
Figure 2 Generation of NICD and Aβ from NotchΔE and APP expressing cells. A. Twenty four hrs after the construct carrying NotchΔE was transfected into APP expressing HEK293 cells, cells were treated with DAPT or cpd E for 8 hr and lysed for WB with antibody 1744 to specifically detect the N-terminus of NICD. Bottom panel, the antibody against α-tubulin was applied to normalize the amounts of lysates used for WB. B. Levels of NICD determined by WB were quantified by densitometry (dotted line). Levels of Aβ generated from the γ-secretase cleavage of APP in the presence of DAPT were determined by ELISA. […] C. NICD (dotted line) and Aβ (solid line) production from cpd E-treated cells were compared. […] D. A luciferase reporter construct driven by HES1 promoter was transfected into HEK293 cells followed by treatment with cpd E or DAPT.
The cDNA construct NotchΔE has a c-myc tag and is a truncated Notch molecule that is an immediate substrate for γ-secretase cleavage to generate Notch intracellular domain (NICD). Two chimeric cDNA constructs express […] the juxtamembrane portion of the APP ectodomain (the α-secretase cleavage region) replaced by the corresponding sequence in Notch (APP-α-NOTCH). These cDNA constructs were provided by Dr. Dennis Selkoe. Hes-1 reporter construct (Hes-Luc) was generated by insertion three of Su(H) binding sequence
Human embryonic kidney (HEK) 293 cells stably expressing Swedish mutant human APP695 were transfected with different cDNA constructs and maintained in 200 μg/ml G418 (Invitrogen, Carlsbad, CA). Transfected cells were treated with two γ-secretase inhibitors cpd E or DAPT for 8 hr. Conditioned media were collected for ELISA, and cell lysates were analyzed by Western blot as described. Cells co-transfected with Hes-Luc and NotchΔE were treated with compounds followed by the measurement of luciferase activity (Luciferase Assay System, Promega, Madison, WI).

| Structure (SMILES) | her6 expression (Notch target gene her6; 0.5 μM, 24 hpf until 48 hpf) | her6 expression (Notch target gene her6; 5 μM, 24 hpf until 48 hpf) | her6 expression (Notch target gene her6; 50 μM, 24 hpf until 48 hpf) | γ-secretase cleavage of Notch in vitro at low concentrations ([1]; 0.1 nM to 10 nM) | Notch cleavage reduced to, in vitro γ-secretase activity assay ([1]; 1 μM or higher) | NICD generation blocked in vitro ([1]; 10 and 100 μM) | NICD generation in vitro, dose response [1] | Notch cleavage reduced to, cell culture based assay ([2]; 1 μM or higher) | EC50 ([2]; Fig. 2B and 2C, read-out: EC50 to reduce NICD generation in cultured cells) | NICD generation in cultured cells [2] | her6 expression (Notch target gene her6; highest testing doses) | NICD generation in vitro ([1]; 100 nM (0.1 μM), compared to DMSO controls) | EC50 ([2]; EC50 for the inhibition of NICD generation in cultured cells, Fig. 2) | EC50 ([2]; EC50 to reduce NICD generation in cultured cells, Fig. 2B and 2C) |
| --- | --- | --- | --- | --- | --- | --- | --- | --- | --- | --- | --- | --- | --- | --- |
| C[C@H](NC(=O)Cc1cc(F)cc(F)c1)C(=O)N[C@H](C(=O)OC(C)(C)C)c1ccccc1 [DAPT, N-[N-(3,5-Difluorophenacetyl-L-alanyl)]-S-phenylglycine t-Butyl Ester] | very similar staining pattern to the control embryos | staining of her6 started to appear | significantly reduced or disappeared in most areas | did not inhibit | about 50% | ~ 60% | clear reduction of NICD generation | about 50% | ~1000 nM | could not completely eliminate NICD generation | – | – | – | – |
| C[C@H](NC(=O)Cc1cc(F)cc(F)c1)C(=O)N[C@H]1N=C(c2ccccc2)c2ccccc2N(C)C1=O [cpd E, (S,S)-2-[2-(3,5-Difluorophenyl)-acetylamino]-N-(1-methyl-2-oxo-5-phenyl-2,3-dihydro-1H-benzo [e] [1,4]diazepin-3-yl)-propionamide] | – | – | slightly reduced expression level of her6 gene | – | – | – | clear reduction of NICD generation | – | – | could not completely eliminate NICD generation | reduction of her6 staining | inhibited; also recorded: only minor reduction of NICD levels; also recorded: only had minor effect on Notch cleavage and NICD generation | < 100 nM | 10 nM |
